Assays:
PAR1 = target: T1, PAR1 (Homo sapiens, UniProt P25116); test: Human platelet activation by PAR1 agonist peptide SFLLRN; type: cell-based; conditions: 10 μM compound, PAR1AP SFLLRN
T1 construct: endogenous in cells; host or cells: platelets
T1 sequence (P25116 22-425): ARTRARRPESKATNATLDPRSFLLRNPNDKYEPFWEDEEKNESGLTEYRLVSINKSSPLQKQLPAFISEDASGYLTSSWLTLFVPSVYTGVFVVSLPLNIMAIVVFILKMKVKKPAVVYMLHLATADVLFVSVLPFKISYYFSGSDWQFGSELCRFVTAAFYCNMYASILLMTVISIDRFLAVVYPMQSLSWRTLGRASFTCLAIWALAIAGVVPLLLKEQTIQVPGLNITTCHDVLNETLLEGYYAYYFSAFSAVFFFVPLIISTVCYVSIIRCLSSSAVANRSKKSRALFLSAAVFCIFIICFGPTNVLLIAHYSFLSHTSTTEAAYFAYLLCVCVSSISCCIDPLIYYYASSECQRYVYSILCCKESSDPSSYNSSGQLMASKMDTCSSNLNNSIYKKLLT
Procedure: (§1) Figure 5 (A) Off-target controls: % of vehicle control for γ-thrombin (100 nM), PAR4 component of α-thrombin (5 nM α-thrombin +1 μM vorapaxar), PAR4 agonist peptide 200 μM AYPGKF, 200 μM PAR1 agonist peptide SFLLRN, and GPVI agonist convulxin 3.16 nM.
(§2) Compounds were screened for inhibition activity against human PAR4 using 100 nM γ-thrombin or 200 μM PAR4-AP in a single-point assay (10 μM test compound). Dose–response curves were conducted for active compounds. Active compounds were also assessed at a single concentration of 10 μM against other agonists, including the PAR4 component of α-thrombin (5 nM α-thrombin +1 μM vorapaxar), the PAR1 agonist peptide (20 μM SFFLRN), and the GPVI receptor agonist convulxin (3 nM).

GPVI receptor = target: T2, GPVI receptor (Homo sapiens, UniProt Q9HCN6); test: Off-target control: convulxin activation of GPVI receptor in human platelets; type: cell-based; conditions: 10 μM compound, convulxin 3.16 nM
T2 construct: endogenous in cells; host or cells: washed human platelets
T2 sequence (Q9HCN6 21-339): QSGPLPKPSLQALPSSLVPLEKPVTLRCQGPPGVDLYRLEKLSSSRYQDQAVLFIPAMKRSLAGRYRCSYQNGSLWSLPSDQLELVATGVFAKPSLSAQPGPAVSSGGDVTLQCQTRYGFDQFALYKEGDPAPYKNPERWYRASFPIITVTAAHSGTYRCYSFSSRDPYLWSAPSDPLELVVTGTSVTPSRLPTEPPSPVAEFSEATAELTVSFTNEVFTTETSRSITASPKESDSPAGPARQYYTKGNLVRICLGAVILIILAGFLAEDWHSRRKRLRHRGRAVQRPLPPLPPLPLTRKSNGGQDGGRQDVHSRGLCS
T2 sequence (P30273 19-86 partner): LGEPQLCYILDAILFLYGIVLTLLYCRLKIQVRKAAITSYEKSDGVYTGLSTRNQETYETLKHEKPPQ
Procedure: The hit compound (7) was tested against several platelet activators including targeting PAR1, PAR4, and GPVI collagen receptors (Figure 5). […] Taken together, the inhibition of the off-target GPVI and the divergence of the inhibition of the γ-thrombin readouts PAC1 vs P-selectin are consistent with the C5 compound not being a specific antagonist of PAR4.
as §1, §2

Compound: Cc1nc(NC(=O)c2cc(-c3ccccc3)n(-c3ccccc3)n2)n[nH]1 [Compound 7]
- inhibition of PAR1 agonist peptide activation (PAR1): did not inhibit
- inhibition of convulxin activation of GPVI receptor (GPVI receptor): did not inhibit
